This is an account of results in PubChem BioAssay AID179 (DTP/NCI, 2004).

For this assay, the system named is CEM cells HIV-1 protection, formazan growth assay. As to the kind of experiment: NCI AIDS Antiviral Assay. The following applies: for IC50: measured here: growth of uninfected CEM cells. An outline of the steps:
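Screen of anti-HIV-1 activity in human CEM cells using a formazan-based growth measurement at five drug concentrations. Hits with 50% or greater protection were repeated, and confirmation required reproducible complete protection.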

Activity calls are given as the source filed them.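 How the source made its calls: active means compounds giving half or more protection of infected cells from virus-caused growth loss, again on retest; inactive means the rest.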 Where a SMILES comes first, the peptide text is derived from it.

On to `NNC(=S)N/N=C(\c1nc2ccc(Cl)cc2[nH]c1=O)C(O)c1cccc([N+](=O)[O-])c1` (configuration not stated), for which the EC50 (commonly the concentration that produces a half-maximal response) is over 562 µM and the IC50 – broadly, the point on the concentration scale where inhibition reaches its midpoint – was determined as 120 µM. The corresponding values for `Cc1cn(C2CC(N=[N+]=[N-])C(C(=O)O)O2)c(=O)[nH]c1=O` (configuration not stated) are 11.7 µM and over 200 µM. The corresponding values for `CCc1cc(CCC(=O)Nc2c(C)cccc2C)[nH]n1` are over 912 µM and over 912 µM. On to `C[C@]12CC[C@@H]3c4ccc(OS(=O)(=O)O)cc4CC[C@H]3[C@@H]1CCC2=O`, for which the outcome was inactive. Regarding `Cc1cc(C)nc(NS(=O)(=O)c2ccc(NC(=O)c3ccc(Cl)c4c(Nc5ccc(S(=O)(=O)Nc6cc(C)on6)cc5)c5ccccc5nc34)cc2)n1`, the EC50 was over 46.8 µM and the half-inhibitory concentration (IC50) is over 46.8 µM. For `CC(C)C(NCc1c2ccccc2nc2ccccc12)C(=O)O` (configuration not stated), the outcome was inactive. As to `COc1ccc(/C=C2\CN(C)Cc3c2nc(N)nc3-c2ccc(OC)cc2)cc1`, the EC50 is over 18.6 µM and the IC50 was over 18.6 µM.

Turning to `Cc1cccc2c(=O)c([Se]c3coc4c(C)cccc4c3=O)coc12`, the EC50 is over 33.1 µM and the IC50 is over 33.1 µM. In the case of `CCN(CC)CCOc1cccc(/C=C(\C#N)c2ccccc2)c1`, the EC50 is over 100 µM and the IC50 turned out to be 7.76 µM. The corresponding values for `CCc1cccc(C(C)CC)c1NC(=O)CC1C(=O)Nc2ccccc2S1=O` (configuration not stated) are over 46.8 µM and over 46.8 µM.

As to `O=c1c2ccccc2[se]n1-c1ccccn1`, the EC50 was 7.76 µM and the IC50 worked out at 16.2 µM.

With `CCCCCCCC(=O)OCC1OC(n2cc(F)c(=O)[nH]c2=O)C(N)C(O)C1O` (configuration not stated), the EC50 was over 309 µM and the IC50 is over 309 µM.

As to `ClC1(Cl)C2CCOC21n1cnc2ccccc21` (configuration not stated), the EC50 is over 200 µM and the 50% inhibitory concentration (IC50) was 102 µM. As for `CC(C)CC(NC(=O)C(Cc1ccc(O)cc1)NC(=O)CNC(=O)C(N)CCC(=O)O)C(=O)NC(Cc1c[nH]c2ccccc12)C(=O)O` (configuration not stated) (H-EGYLW-OH; configuration not given here), the result was inactive. For `O=C1c2cc3c(cc2CC12Cc1ccc4c(c1C2=O)CCC4)CCCC3` (configuration not stated), the EC50 was over 200 µM and the IC50 is over 200 µM.

Consider `COc1ccc(CCNC(=O)Cc2cc(OC)c(OC)cc2Br)cc1OC`, for which the EC50 was over 81.3 µM and the IC50 is over 81.3 µM. As to `CC1CN1c1c(C(=O)/C=C/c2ccccc2)c(-c2ccccc2)nn(C)c1=O` (configuration not stated), the EC50 was over 67.6 µM and the IC50 was found to be 12.6 µM. The corresponding values for `CCOC(=O)/C=C1/Oc2ccccc2C1(C)O` (configuration not stated) are over 42.7 µM and over 42.7 µM.

Turning to `COC(=O)C1Cc2c(OC)ccc(OC)c2C(O)C1C(=O)OC` (configuration not stated), the EC50 was over 200 µM and the half-inhibitory concentration (IC50) was over 200 µM.

For the compound `Nc1c(S(=O)(=O)O)cc2cc(S(=O)(=O)O)ccc2c1N=Nc1ccc(CCc2ccc(N=Nc3c(N)c(S(=O)(=O)O)cc4cc(S(=O)(=O)O)ccc34)cc2S(=O)(=O)O)c(S(=O)(=O)O)c1`, the EC50 is 7.59 µM and the IC50 is 60.3 µM. For the compound `C[C@]12Cc3conc3C(O)=C1CC[C@@H]1C2CC[C@@]2(C)C1CC[C@@H]2O` (some centres not stated), the EC50 is over 204 µM and the IC50 was found to be 25.7 µM. For `CC(C)=CC1(C)/C(=N\O)C(C)(CC(C)C)C(=O)N1O` (configuration not stated) the same measures were over 933 µM and over 933 µM.

As for `CCOC(=O)C(NC(=O)CC)(Nc1ccccc1F)C(F)(F)F` (configuration not stated), the EC50 is over 200 µM and the concentration for half-maximal inhibition (IC50) is over 200 µM. As to `CC(=O)c1cccc(NC(=O)/C(=N\NC(C)(C)C)c2c(O)c3ccccc3oc2=O)c1`, the EC50 is over 589 µM and the IC50 is 257 µM.

Consider `NNC(=O)C1C2c3ccccc3C(c3ccccc32)C1C(=O)NN` (configuration not stated), for which the EC50 is over 200 µM and the IC50 is over 200 µM.

With `N#CC(/C(=N/N=C(N)N)C(=O)Nc1ccccc1[N+](=O)[O-])c1nc(-c2ccc([N+](=O)[O-])cc2)cs1` (configuration not stated), the EC50 was over 27.5 µM and the IC50 was over 27.5 µM. For `CC(OC(=O)C(CC(=O)OC(C)(C)C)NC(=O)OC(C)(C)C)C(=O)OCc1ccccc1` (configuration not stated), the EC50 is over 200 µM and the half-maximal inhibitory concentration (IC50) was over 200 µM. With `O=C(ON=c1c2ccccc2ccc2ccccc12)c1cc([N+](=O)[O-])cc([N+](=O)[O-])c1`, the EC50 was over 200 µM and the IC50 came to 20.4 µM.

Take `CCc1ccc2oc(-c3cc(O)c(-c4nc5cc(CC)ccc5o4)cc3O)nc2c1`: the EC50 is over 200 µM and the IC50 is over 200 µM. Regarding `N#CCCN(CCC#N)c1ccc(/C=C2\SC(=S)NC2=O)cc1Br`, the EC50 was over 200 µM and the half-maximal inhibitory concentration (IC50) is over 200 µM. `COc1cc(Nc2cnc3ccc(N)cc3n2)cc(OC)c1OC`: the EC50 was over 550 µM.

In the case of `O=Cc1cc2sc(C=O)cc2s1`, the outcome was inactive.

Turning to `C=C(C)[C@H]1C2=CC(C(=O)OC)=C(C[C@H](C(=C)C)[C@H]3O[C@H]3C3=C[C@H]1OC3=O)O2`, the EC50 is over 200 µM and the half-inhibitory concentration (IC50) amounted to 1.62 µM.

With `COC(=O)Cc1cccc2c(=O)c(S(=O)(=O)NC(=O)Nc3ccc(Cl)cc3)c(-c3ccccc3)oc12`, the EC50 was over 200 µM and the IC50 turned out to be 41.7 µM. On to `Nc1ccc(CCN2CCN(c3cccc(C(F)(F)F)c3)CC2)cc1`, for which the outcome was inactive. Consider `COc1ccc2c(c1)OC[C@@H]1c3cc(NC(=O)c4ccccc4)c(OCc4ccccc4)cc3N(S(=O)(=O)c3ccccc3)[C@H]21`, for which the EC50 is over 200 µM and the IC50 is over 200 µM. For the compound `COCN1C(=O)[C@@H]2CCCN2C(=O)c2cc(Cl)ccc21`, the EC50 is over 200 µM and the IC50 was over 200 µM. Take `O=C(CC1(O)C(=O)Nc2ccc([N+](=O)[O-])cc21)c1ccc2ccccc2c1` (configuration not stated): the EC50 was over 100 µM and the IC50 is over 100 µM. Consider `CC#CCCCC1(C)CCNC1=S` (configuration not stated), for which the EC50 was over 200 µM and the IC50 is over 200 µM. Turning to `CC1CN=C(Nc2ccccc2)S1` (configuration not stated), the EC50 was over 200 µM and the IC50 is over 200 µM. Regarding `CC(=O)Oc1cc2c(n(C)c1=O)-c1ccccc1C2`, the EC50 is over 200 µM and the concentration for half-maximal inhibition (IC50) turned out to be 6.61 µM. `CCOC(=O)[C@@H]1[C@@H]2NC(=O)N[C@@]1(C)Oc1ccccc12`: the EC50 is over 200 µM and the IC50 was over 200 µM. For `C=CCC1(O)CC(n2ccc(=O)[nH]c2=O)OC1CO[Si](C)(C)C(C)(C)C` (configuration not stated), the EC50 is over 200 µM and the IC50 is over 100 µM. For `O=C1c2c(O)cccc2C(C(=O)CCCCC(=O)C2c3cccc(O)c3C(=O)c3c(O)cccc32)c2cccc(O)c21`, the EC50 was over 6.76 µM and the IC50 is over 6.76 µM. For `O=S1(=O)COc2ccccc2-c2ncncc21`, the EC50 was 47.9 µM and the IC50 was over 200 µM.

As to `CC(SC(C)C(=O)N/N=C/c1c[nH]c2ccccc12)C(=O)N/N=C\c1c[nH]c2ccccc12` (configuration not stated), the EC50 is over 200 µM and the half-inhibitory concentration (IC50) stood at 120 µM. `CN(C)c1ccc(/C=C(\NC(=O)c2ccccc2)C(=O)NC(CC(=O)O)C(=O)O)cc1` (configuration not stated): the outcome was inactive. With `O=Nc1c(-c2ccccc2)[nH]oc1=O`, the EC50 is over 200 µM and the IC50 was 36.3 µM. The corresponding values for `Cc1ccc(-n2c(Cn3nnc(-c4cccnc4)n3)nn(C3OC(COC(=O)c4ccccc4)C(OC(=O)c4ccccc4)C3OC(=O)c3ccccc3)c2=S)cc1` (configuration not stated) are over 200 µM and over 200 µM.

For `CC1=C2C(=CC(C)(C)C2O)C(=O)C(C)(O)C12CC2` (configuration not stated), the result was inactive. The compound `O=C(O)c1ccccc1-c1c2ccc(=O)cc-2oc2cc(O)ccc12` had an EC50 of over 316 µM and a half-maximal inhibitory concentration (IC50) of 58.9 µM.

In the case of `COC(=O)CC1NC(=O)[C@]1(C)[C@H](C)O` (some centres not stated), the EC50 was over 1230 µM and the IC50 is over 1230 µM. Turning to `O=C([O-])C(F)(F)F.[C-]#[O+].[C-]#[O+].[C-]#[O+].[C-]#[O+].[C-]#[O+].[Mn]`, the EC50 was over 813 µM and the 50% inhibitory concentration (IC50) is 44.7 µM.

In the case of `O=C(COc1ccc(OCC(=O)N2C(=O)CC(=O)N(c3ccc(Cl)cc3)C2=S)cc1)N1C(=O)CC(=O)N(c2ccc(Cl)cc2)C1=S`, the EC50 is over 200 µM and the half-inhibitory concentration (IC50) was determined as 42.7 µM.

In the case of `OCCC(N1CCOCC1)C(O)(c1ccccc1)c1ccccc1` (configuration not stated), the EC50 was over 200 µM and the IC50 was over 200 µM.

As to `COC1C(C)OC(OC2CC(C)(O)Cc3cc4c(c(O)c32)C(=O)c2c(O)cc3c(c2C4=O)OC2OC3(C)C(O)C(N(C)C)C2O)C(OC)C1(C)OC` (configuration not stated), the outcome was inactive. Turning to `O=C1C(CN2CCCCC2)CCCC1CN1CCCCC1` (configuration not stated), the EC50 is over 550 µM, the result was inactive and the IC50 amounted to 6.17 µM.

With `CCOC(=O)C1C(c2ccco2)C2(C#N)C(=N)OC1(C)C2(C#N)C#N` (configuration not stated), the EC50 was over 200 µM and the IC50 was 64.6 µM. As for `NC(=O)C(=O)N/N=C1\C(=O)N(c2ccc(Cl)cc2Cl)C(=O)C1C(=O)Nc1ccc(Cl)cc1Cl` (configuration not stated), the EC50 is over 7.08 µM and the IC50 is over 7.08 µM. On to `O=c1n(-c2ccc(Cl)c(Cl)c2)c(=O)n(-c2ccc(Cl)c(Cl)c2)c(=O)n1-c1ccc(Cl)c(Cl)c1`, for which the EC50 is over 200 µM and the IC50 stood at 5.89 µM.

Turning to `Cc1[nH]c(=O)[nH]c(=O)c1N(CCF)CCCl`, the EC50 was over 1000 µM and the 50% inhibitory concentration (IC50) worked out at 89.1 µM.

As to `CCOP(=O)(OCC)/C(=C/c1ccccc1)CC(C)=O`, the EC50 is over 200 µM and the IC50 is 148 µM. For `OCCSCCCSCCO` the same measures were over 95.5 µM and 72.4 µM. For `CN(C)N1C(=O)S/C(=C\c2ccc([N+](=O)[O-])cc2)C1=O` the same measures were over 200 µM and over 200 µM. On to `O=c1cc(-c2ccccc2)oc2cc(O)cc(O)c12`, for which the EC50 was over 87.1 µM and the IC50 worked out at 38 µM. The corresponding values for `O=C(CCCn1cnc([N+](=O)[O-])n1)NCCCn1ccnc1[N+](=O)[O-]` are over 200 µM and over 200 µM. Consider `C=C(C)[C@@]1(OC(=O)c2cc([N+](=O)[O-])cc([N+](=O)[O-])c2)C[C@@H]2CCCC[C@@H]21`, for which the outcome was inactive. As for `CCCC(CC)c1c(O)c(O)c(C(CC)CCC)c(C(CC)CCC)c1C(CC)CCC` (configuration not stated), the EC50 was over 100 µM and the concentration for half-maximal inhibition (IC50) was 15.5 µM.
